Test results as given in US11136329B2, “JAK inhibitors” (Vimalan Biosciences, Inc., priority 2019, dated 2021).

Columns and labels:
Format in all cases: biochemical
JAK1 = JAK1 (Homo sapiens (Human), UniProt P23458); test: JAK/TYK2 assay (Kinase Glo luminescence), JAK1; settings: 7.5 nM enzyme, 2 uM ATP, 30 uM IRS-1, 1 hr
How it was run: (§1)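 Kinase activity read as Kinase Glo luminescence (inversely related to activity) after enzyme and substrate reacted with compound at 25° C. for 1-2 hours in 20 mM HEPES, 10 mM MgCl2, 0.01% Tween, 1 mM DTT, pH 7.5. Test compound final concentrations spanned 10000 to 0.51 nM in 3-fold steps.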

JAK2 = JAK2 (Homo sapiens (Human), UniProt O60674); test: JAK/TYK2 assay (Kinase Glo luminescence), JAK2; settings: 0.8 nM enzyme, 2 uM ATP, 4 uM pEY, 1 hr
How it was run: as §1

JAK3 = JAK3 (Homo sapiens (Human), UniProt P52333); test: JAK/TYK2 assay (Kinase Glo luminescence), JAK3; settings: 1.5 nM enzyme, 2 uM ATP, 4 uM pEY, 1 hr
How it was run: as §1

TYK2 = TYK2 (Homo sapiens (Human), UniProt P29597); test: JAK/TYK2 assay (Kinase Glo luminescence), TYK2; settings: 9 nM enzyme, 2 uM ATP, 30 uM IRS-1, 1 hr
How it was run: as §1

Measured: IC50

JAK1, sequence (P23458 whole entry, species assumed): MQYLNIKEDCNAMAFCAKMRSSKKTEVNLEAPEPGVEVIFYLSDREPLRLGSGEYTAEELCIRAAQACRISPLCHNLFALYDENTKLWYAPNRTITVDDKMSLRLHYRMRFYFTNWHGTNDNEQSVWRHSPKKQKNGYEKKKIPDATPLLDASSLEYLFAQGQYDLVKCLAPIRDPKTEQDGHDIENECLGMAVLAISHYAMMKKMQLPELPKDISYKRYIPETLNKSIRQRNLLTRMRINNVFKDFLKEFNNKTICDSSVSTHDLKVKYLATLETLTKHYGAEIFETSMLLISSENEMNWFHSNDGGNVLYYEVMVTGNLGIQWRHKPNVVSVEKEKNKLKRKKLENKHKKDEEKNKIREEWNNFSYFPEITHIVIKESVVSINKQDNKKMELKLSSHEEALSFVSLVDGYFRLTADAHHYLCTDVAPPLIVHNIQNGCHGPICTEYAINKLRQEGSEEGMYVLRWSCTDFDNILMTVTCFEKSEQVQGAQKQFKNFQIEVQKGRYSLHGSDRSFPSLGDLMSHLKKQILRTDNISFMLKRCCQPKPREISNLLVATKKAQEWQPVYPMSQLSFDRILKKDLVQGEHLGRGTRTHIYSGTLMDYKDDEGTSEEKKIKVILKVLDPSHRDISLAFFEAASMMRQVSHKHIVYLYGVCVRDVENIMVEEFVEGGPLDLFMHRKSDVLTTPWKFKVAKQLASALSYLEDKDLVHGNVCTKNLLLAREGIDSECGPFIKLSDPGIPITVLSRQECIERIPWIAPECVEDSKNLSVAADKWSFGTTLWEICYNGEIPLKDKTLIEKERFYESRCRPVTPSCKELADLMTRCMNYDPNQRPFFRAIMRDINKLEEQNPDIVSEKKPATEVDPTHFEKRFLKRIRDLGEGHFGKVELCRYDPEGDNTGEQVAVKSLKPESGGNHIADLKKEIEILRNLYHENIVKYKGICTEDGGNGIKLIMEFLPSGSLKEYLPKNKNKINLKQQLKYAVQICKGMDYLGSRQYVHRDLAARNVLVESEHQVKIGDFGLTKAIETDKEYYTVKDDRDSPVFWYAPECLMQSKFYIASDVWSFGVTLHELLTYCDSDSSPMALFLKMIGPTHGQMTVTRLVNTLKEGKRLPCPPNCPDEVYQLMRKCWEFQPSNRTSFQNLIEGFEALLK
JAK3, sequence (P52333 whole entry, species assumed): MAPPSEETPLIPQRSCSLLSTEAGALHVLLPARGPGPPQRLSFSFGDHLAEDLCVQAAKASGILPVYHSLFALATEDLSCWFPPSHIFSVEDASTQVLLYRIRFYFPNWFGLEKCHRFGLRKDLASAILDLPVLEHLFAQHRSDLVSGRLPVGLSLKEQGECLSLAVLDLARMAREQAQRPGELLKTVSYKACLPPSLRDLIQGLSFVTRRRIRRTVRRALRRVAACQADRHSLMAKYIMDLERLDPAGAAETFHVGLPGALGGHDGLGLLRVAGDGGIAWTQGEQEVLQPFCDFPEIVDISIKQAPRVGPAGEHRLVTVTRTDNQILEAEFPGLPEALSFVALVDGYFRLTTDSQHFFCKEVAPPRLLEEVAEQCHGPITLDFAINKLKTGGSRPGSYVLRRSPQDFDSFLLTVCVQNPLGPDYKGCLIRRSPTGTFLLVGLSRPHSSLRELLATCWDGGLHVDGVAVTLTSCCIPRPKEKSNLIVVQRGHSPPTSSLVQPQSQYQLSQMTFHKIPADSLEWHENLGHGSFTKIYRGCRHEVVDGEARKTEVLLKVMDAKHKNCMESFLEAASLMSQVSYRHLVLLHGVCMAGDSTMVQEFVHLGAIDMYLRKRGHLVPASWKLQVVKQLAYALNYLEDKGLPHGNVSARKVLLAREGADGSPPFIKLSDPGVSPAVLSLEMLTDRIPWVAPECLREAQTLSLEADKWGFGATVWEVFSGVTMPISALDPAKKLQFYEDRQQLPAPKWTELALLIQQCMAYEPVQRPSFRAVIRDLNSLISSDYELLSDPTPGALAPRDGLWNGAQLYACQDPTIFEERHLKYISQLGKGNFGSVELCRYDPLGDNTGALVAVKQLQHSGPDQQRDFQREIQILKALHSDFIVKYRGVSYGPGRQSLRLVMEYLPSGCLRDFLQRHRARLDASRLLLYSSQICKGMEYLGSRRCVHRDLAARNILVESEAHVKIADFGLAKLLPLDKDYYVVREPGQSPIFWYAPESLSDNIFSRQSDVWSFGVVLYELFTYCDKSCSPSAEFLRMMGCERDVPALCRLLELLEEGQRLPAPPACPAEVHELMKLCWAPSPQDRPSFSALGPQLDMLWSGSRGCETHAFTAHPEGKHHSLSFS
TYK2, sequence (P29597 whole entry, species assumed): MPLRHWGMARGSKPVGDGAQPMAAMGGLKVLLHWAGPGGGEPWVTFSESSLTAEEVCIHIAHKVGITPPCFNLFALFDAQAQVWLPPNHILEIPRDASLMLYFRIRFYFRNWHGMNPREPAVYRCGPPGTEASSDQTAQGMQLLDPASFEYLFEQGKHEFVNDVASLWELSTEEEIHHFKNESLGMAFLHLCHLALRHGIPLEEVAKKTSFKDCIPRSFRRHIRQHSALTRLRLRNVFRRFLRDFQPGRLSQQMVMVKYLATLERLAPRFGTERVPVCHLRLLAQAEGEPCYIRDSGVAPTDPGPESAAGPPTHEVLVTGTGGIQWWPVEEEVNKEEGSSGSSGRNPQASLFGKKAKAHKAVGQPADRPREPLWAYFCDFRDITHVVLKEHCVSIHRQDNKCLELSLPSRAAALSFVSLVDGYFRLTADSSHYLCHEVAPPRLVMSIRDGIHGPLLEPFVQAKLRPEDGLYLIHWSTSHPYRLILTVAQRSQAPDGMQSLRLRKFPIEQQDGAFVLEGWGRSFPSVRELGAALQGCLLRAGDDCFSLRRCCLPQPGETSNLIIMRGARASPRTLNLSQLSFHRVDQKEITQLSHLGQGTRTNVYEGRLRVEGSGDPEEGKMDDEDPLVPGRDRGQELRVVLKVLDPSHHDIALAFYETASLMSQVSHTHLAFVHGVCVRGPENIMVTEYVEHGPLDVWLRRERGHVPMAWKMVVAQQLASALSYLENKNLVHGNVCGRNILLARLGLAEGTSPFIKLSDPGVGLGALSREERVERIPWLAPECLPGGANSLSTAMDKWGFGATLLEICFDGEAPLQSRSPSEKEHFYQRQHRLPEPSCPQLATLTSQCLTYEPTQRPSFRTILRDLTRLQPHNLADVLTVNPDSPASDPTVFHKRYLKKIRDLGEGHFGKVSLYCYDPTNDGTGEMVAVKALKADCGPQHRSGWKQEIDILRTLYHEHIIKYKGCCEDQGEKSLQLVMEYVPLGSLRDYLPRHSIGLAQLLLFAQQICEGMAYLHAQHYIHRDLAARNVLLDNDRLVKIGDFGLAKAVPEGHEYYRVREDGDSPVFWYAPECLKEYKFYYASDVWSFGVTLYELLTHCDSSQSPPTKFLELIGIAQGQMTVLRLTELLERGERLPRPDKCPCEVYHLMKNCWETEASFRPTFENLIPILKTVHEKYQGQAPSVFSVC
JAK2, sequence (O60674 whole entry, species assumed): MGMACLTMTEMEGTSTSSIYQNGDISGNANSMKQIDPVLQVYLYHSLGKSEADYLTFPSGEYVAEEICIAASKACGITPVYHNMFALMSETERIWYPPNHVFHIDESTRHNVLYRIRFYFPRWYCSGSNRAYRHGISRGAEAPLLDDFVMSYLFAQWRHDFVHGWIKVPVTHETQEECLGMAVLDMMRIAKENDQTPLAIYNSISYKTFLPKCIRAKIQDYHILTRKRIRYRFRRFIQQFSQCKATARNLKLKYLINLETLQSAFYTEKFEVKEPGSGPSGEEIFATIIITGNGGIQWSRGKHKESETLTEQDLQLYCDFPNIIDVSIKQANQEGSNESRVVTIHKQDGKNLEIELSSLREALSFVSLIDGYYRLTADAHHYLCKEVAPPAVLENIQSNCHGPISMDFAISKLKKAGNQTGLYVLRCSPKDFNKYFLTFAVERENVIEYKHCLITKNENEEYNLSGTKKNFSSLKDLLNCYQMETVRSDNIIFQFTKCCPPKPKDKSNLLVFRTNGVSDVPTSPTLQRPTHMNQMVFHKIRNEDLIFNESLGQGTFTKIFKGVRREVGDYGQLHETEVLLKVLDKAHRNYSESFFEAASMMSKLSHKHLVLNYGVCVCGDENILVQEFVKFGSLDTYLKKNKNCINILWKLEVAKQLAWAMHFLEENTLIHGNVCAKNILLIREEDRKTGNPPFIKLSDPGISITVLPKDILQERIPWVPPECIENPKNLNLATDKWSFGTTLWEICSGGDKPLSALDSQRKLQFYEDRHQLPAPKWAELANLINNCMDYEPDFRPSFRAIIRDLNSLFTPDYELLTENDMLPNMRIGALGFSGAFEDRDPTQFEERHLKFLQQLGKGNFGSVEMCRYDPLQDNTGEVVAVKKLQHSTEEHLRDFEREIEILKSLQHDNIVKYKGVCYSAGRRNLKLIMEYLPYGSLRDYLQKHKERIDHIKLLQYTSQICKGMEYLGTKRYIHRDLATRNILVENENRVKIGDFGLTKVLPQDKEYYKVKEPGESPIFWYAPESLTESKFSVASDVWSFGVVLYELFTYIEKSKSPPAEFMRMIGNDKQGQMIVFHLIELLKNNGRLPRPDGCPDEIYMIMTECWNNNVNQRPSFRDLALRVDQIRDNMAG

CCOC(=O)Cn1cc(Nc2ncc3ccn(C[C@@H](CC)C(C)C)c3n2)cn1 [Compound 135, ethyl (S)-2-(4-((7-(2-ethyl-3-methylbutyl)-7H-pyrrolo[2,3-d]pyrimidin-2-yl)amino)-1H-pyrazol-1-yl)acetate]
< 100 nM: all assays above

CC[C@H](Cn1ccc2cnc(Nc3cnn(C(CCO)C(=O)O)c3)nc21)C(C)C (stereo partly drawn) [Compound 136, 2-(4-((7-((S)-2-ethyl-3-methylbutyl)-7H-pyrrolo[2,3-d]pyrimidin-2-yl)amino)-1H-pyrazol-1-yl)-4-hydroxybutanoic acid]
< 100 nM: all assays above

CCC(Cn1ccc2cnc(Nc3cnn(C(=O)OC(C)(C)C)c3)nc21)C(C)C (centres unmarked) [Compound 137, tert-butyl 4-((7-(2-ethyl-3-methylbutyl)-7H-pyrrolo[2,3-d]pyrimidin-2-yl)amino)-1H-pyrazole-1-carboxylate]
< 100 nM: all assays above

CC[C@H](Cn1ccc2cnc(Nc3cnn(CC(=O)O[C@H]4CCN(C)C4)c3)nc21)C(C)C [Compound 138, (S)-1-methylpyrrolidin-3-yl 2-(4-((7-((S)-2-ethyl-3-methylbutyl)-7H-pyrrolo[2,3-d]pyrimidin-2-yl)amino)-1H-pyrazol-1-yl)acetate]
< 100 nM: all assays above

CC[C@H](Cn1ccc2cnc(Nc3cnn(CC(=O)O[C@@H]4CCN(C)C4)c3)nc21)C(C)C [Compound 139, (R)-1-methylpyrrolidin-3-yl 2-(4-((7-((S)-2-ethyl-3-methylbutyl)-7H-pyrrolo[2,3-d]pyrimidin-2-yl)amino)-1H-pyrazol-1-yl)acetate]
< 100 nM: all assays above

CC[C@H](Cn1ccc2cnc(Nc3cnn(CC(=O)OC4COC4)c3)nc21)C(C)C [Compound 140, oxetan-3-yl (S)-2-(4-((7-(2-ethyl-3-methylbutyl)-7H-pyrrolo[2,3-d]pyrimidin-2-yl)amino)-1H-pyrazol-1-yl)acetate]
< 100 nM: all assays above

CC[C@H](Cn1ccc2cnc(Nc3cnn(CC(=O)OCC4COC4)c3)nc21)C(C)C [Compound 141, oxetan-3-ylmethyl (S)-2-(4-((7-(2-ethyl-3-methylbutyl)-7H-pyrrolo[2,3-d]pyrimidin-2-yl)amino)-1H-pyrazol-1-yl)acetate]
< 100 nM: all assays above

CCC(CC)Cn1ccc2cnc(Nc3cnn(C4CCOC4=O)c3)nc21 (centres unmarked) [Compound 142, 3-(4-((7-(2-ethylbutyl)-7H-pyrrolo[2,3-d]pyrimidin-2-yl)amino)-1H-pyrazol-1-yl)dihydrofuran-2(3H)-one]
< 100 nM: all assays above

CC[C@H](Cn1ccc2cnc(Nc3cnn(C4CC(C)(C)OC4=O)c3)nc21)C(C)C (stereo partly drawn) [Compound 144, 3-(4-((7-((S)-2-ethyl-3-methylbutyl)-7H-pyrrolo[2,3-d]pyrimidin-2-yl)amino)-1H-pyrazol-1-yl)-5,5-dimethyldihydrofuran-2(3H)-one]
< 100 nM: all assays above

CN1CC[C@@H](OC(=O)Cn2cc(Nc3ncc4ccn(C[C@H]5CC[C@H](O)CC5)c4n3)cn2)C1 [Compound 146, (R)-1-methylpyrrolidin-3-yl 2-(4-((7-(((1r,4r)-4-hydroxycyclohexyl)methyl)-7H-pyrrolo[2,3-d]pyrimidin-2-yl)amino)-1H-pyrazol-1-yl)acetate]
< 100 nM: all assays above

CC[C@H](Cn1ccc2cnc(Nc3cnn(C(CC(C)(C)O)C(=O)O)c3)nc21)C(C)C (stereo partly drawn) [Compound 147, 2-(4-((7-((S)-2-ethyl-3-methylbutyl)-7H-pyrrolo[2,3-d]pyrimidin-2-yl)amino)-1H-pyrazol-1-yl)-4-hydroxy-4-methylpentanoic acid]
< 100 nM: all assays above
